Structures can show the parent of a compound that is named as a salt.
Biological target: AKT1 (Homo sapiens, UniProt P31749, S473D)
Experiment: Determination of the IC50 for AKT1 (HTRF)
Format: biochemical
Conditions: AKT1 without PH domain, activated by PDK1
Experimental: Determination of the IC50 for AKT1
The inhibitory potential of the compounds is evaluated by HTRF, a time-resolved fluorescence technique based on non-radiative energy transfer (FRET). […] This phosphorylation allows the kinase activity of AKT1 to be activated.
Starting with a 10 mM solution of inhibitors, 3 μl are taken and placed in a 96-well polypropylene plate containing 27 μl of 100% DMSO. The various test compounds are diluted in cascade by taking 15 μl of compound, to which are added 30 μl of 100% DMSO.
The various reaction components are added in the following manner:
Next, 10 μl of the inhibitor solution are added. Finally, the reaction is initiated by adding 10 μl of a solution containing both 100 μM of ATP and 10 μM of biotinylated peptide. The sequence of this peptide is as follows: biot-[…] (reference Neosystem SP000560). The plate is then covered with a plastic film, agitated and finally incubated at RT for 30 minutes. […] After incubation overnight at 4° C., the plate is read using an Ultra evolution spectrophotometer from Tecan. […] All the tests are performed in duplicate and the mean of the two tests is calculated.
For each point, a delta F is calculated in the following manner:
R(Ratio)=counts665 nm/counts620 nm
ΔF % is calculated by the Tecan Ultra Evolution machine.

Chain of AKT1 (P31749 118-480 S473D limits assumed): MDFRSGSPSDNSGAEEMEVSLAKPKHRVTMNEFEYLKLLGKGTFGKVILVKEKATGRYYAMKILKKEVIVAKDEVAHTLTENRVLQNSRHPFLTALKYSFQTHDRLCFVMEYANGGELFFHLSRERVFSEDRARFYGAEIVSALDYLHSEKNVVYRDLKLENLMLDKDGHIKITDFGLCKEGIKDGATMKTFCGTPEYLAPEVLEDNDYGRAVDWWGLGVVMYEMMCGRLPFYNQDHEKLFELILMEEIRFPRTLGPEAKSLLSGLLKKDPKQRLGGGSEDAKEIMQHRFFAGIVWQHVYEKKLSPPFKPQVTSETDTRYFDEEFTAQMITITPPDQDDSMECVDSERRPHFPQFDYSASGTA

`CN1CCCCC1C(NC(=O)Nc1ccc2[nH]nc(-c3ccc(S(N)(=O)=O)cc3)c2c1)c1ccccc1` [Ex 12, 4-[5-({[(1-Methylpiperid-2-yl)(phenyl)methyl]carbamoyl}amino)-1H-indazol-3-yl]benzenesulfonamide((S,2S),(R,2R))] and `CN1CCCCC1C(NC(=O)Nc1ccc2[nH]nc(-c3cccnc3)c2c1)c1ccccc1` [Ex 14, 1-[(1-Methylpiperid-2-yl)(phenyl)methyl]-3-(3-pyrid-3-yl-1H-indazol-5-yl)urea((S,2S),(R,2R))] cannot be ordered by IC50: under 100 nM for the first, under 100 nM for the second.

First: CN1CCCCC1C(NC(=O)Nc1cc(F)c2[nH]nc(NC(=O)c3ccccc3)c2c1)c1ccccc1 [Ex 19, N-[7-Fluoro-5-({[(1-methylpiperid-2-yl)(phenyl)methyl]carbamoyl}amino)-1H-indazol-3-yl]benzamide((S,2S),(R,2R))]
Second: CN1CCCCC1C(NC(=O)Nc1ccc2[nH]nc(C#Cc3cccc(F)c3)c2c1)c1ccccc1 [Ex 22, 1-{3-[(3-Fluorophenyl)ethynyl]-1H-indazol-5-yl}-3-[(1-methylpiperid-2-yl)(phenyl)methyl]urea((S,2S),(R,2R))]
The IC50 of the first is higher: 500 to 2000 nM for the first, 100 to 500 nM for the second. The second is the more potent here.

`O=C(Nc1ccc2[nH]nc(C#Cc3ccccc3)c2c1)N[C@@H](c1ccc(Cl)c(Cl)c1)[C@@H]1CCCCN1` [Ex 26, 1-{(S)-(3,4-Dichlorophenyl)[(2S)-piperid-2-yl]methyl}-3-[3-(phenylethynyl)-1H-indazol-5-yl]urea] and `CN1CCCCC1C(NC(=O)Nc1ccc2[nH]nc(NC(=O)c3ccccc3)c2c1)c1ccccc1` [Ex 28, N-[5-({[(1-Methylpiperid-2-yl)(phenyl)methyl]carbamoyl}amino)-1H-indazol-3-yl]benzamide((S,2S),(R,2R))] fall in the same range of IC50: 100 to 500 nM for the first, 100 to 500 nM for the second.

Compared with `CN1CCCCC1C(c1ccccc1)n1ccn(-c2ccc3[nH]ncc3c2)c1=O` [Ex 30, 1-(1H-Indazol-5-yl)-3-[(1-methylpiperid-2-yl)phenylmethyl]-1,3-dihydroimidazol-2-one((S,2S),(R,2R))], `CN1CCCCC1C(c1ccccc1)N(C)C(=O)Nc1ccc2[nH]ncc2c1` [Ex 32, 3-(1H-Indazol-5-yl)-1-methyl-1-[(1-methylpiperid-2-yl)phenylmethyl]urea((S,2S),(R,2R))] is higher in IC50: 100 to 500 nM for the first, 500 to 2000 nM for the second.

First: CN(C(=O)NC(c1ccccc1)C1CCCCN1C)c1ccc2[nH]ncc2c1 [Ex 33, 1-(1H-Indazol-5-yl)-1-methyl-3-[(1-methylpiperid-2-yl)(phenyl)methyl]urea((S,2S),(R,2R))]
Second: O=C(Nc1ccc2[nH]ncc2c1)O[C@@H](c1cc(F)cc(Cl)c1)[C@H]1CCCCN1 [Ex 39c, (S)-(3-Chloro-5-fluorophenyl)[(2R)-piperid-2-yl]methyl 1H-indazol-5-ylcarbamate]
The IC50 of the first is higher: 500 to 2000 nM for the first, 100 to 500 nM for the second. The second is the more potent here.

First: O=C(Nc1ccc2[nH]ncc2c1)O[C@H](c1cc(F)cc(Cl)c1)[C@H]1CCCCN1 [Ex 39d, (R)-(3-Chloro-5-fluorophenyl)[(2R)-piperid-2-yl]methyl 1H-indazol-5-ylcarbamate]
Second: CCOC(=O)c1cccc(C(OC(=O)Nc2ccc3[nH]ncc3c2)[C@@H]2CCCCN2)c1 (stereo partly drawn) [Ex 41, Ethyl 3-{[(1H-Indazol-5-ylcarbamoyl)oxy][(2S)-piperid-2-yl]methyl}benzoate]
The IC50 of the first is lower: under 100 nM for the first, 500 to 2000 nM for the second. The first is the more potent here.

First: CC(C)(C)c1ccc(NC(=O)c2cccc(C(OC(=O)Nc3ccc4[nH]ncc4c3)[C@@H]3CCCCN3)c2)cc1 (stereo partly drawn) [Ex 42, {3-[(4-tert-Butylphenyl)carbamoyl]phenyl}[(2S)-piperid-2-yl]methyl 1H-Indazol-5-yl carbamate]
Second: O=C(Nc1ccc2[nH]ncc2c1)OC(c1cccc(C(=O)Nc2ccccc2)c1)[C@@H]1CCCCN1 (stereo partly drawn) [Ex 43, [3-(Anilinocarbonyl)phenyl][(2S)-piperid-2-yl]methyl 1H-Indazol-5-ylcarbamate]
The IC50 of the first is higher: 500 to 2000 nM for the first, 100 to 500 nM for the second.

`O=C(Nc1ccc2[nH]ncc2c1)O[C@@H](c1cccc(C(F)(F)F)c1)[C@@H]1CCCCN1` [Ex 44, (S)-(3-Trifluoromethylphenyl)[(2S)-piperid-2-yl]methyl 1H-indazol-5-ylcarbamate] and `O=C(Nc1ccc2[nH]ncc2c1)O[C@@H](c1cccc(I)c1)[C@@H]1CCCCN1` [Ex 45, (S)-(3-Iodophenyl)[(2S)-piperid-2-yl]methyl 1H-indazol-5-ylcarbamate] cannot be ordered by IC50: under 100 nM for the first, under 100 nM for the second.

“(7-Fluoro-1H-indazol-5-yl)-(S)-(3-chloro-5-fluorophenyl)-(S)-piperid-2-ylmethyl carbamate [Ex 49]” showed an IC50 of under 100 nM.

Test system: not given
Experiment: not given
Conditions: not given

Point of comparison: `S=C(Nc1ccc2[nH]ncc2c1)N[C@@H](c1ccc(Cl)c(Cl)c1)[C@@H]1CCCCN1` (as salt: fumarate) [Ex 31, 1-{(S)-(3,4-Dichlorophenyl)[(2S)-piperid-2-yl]methyl}-3-(1H-indazol-5-yl)thiourea], melting point 145 °C. Against it:
- CN1CCCCC1C(NC(=O)Nc1ccc2[nH]nc(NC(=O)c3ccccc3)c2c1)c1ccccc1 (as salt: fumarate) [Ex 28, N-[5-({[(1-Methylpiperid-2-yl)(phenyl)methyl]carbamoyl}amino)-1H-indazol-3-yl]benzamide((S,2S),(R,2R))] — higher, 235 °C
- CN1CCCCC1C(c1ccccc1)n1ccn(-c2ccc3[nH]ncc3c2)c1=O (as salt: fumarate) [Ex 30, 1-(1H-Indazol-5-yl)-3-[(1-methylpiperid-2-yl)phenylmethyl]-1,3-dihydroimidazol-2-one((S,2S),(R,2R))] — higher, 231 to 232 °C
- CN1CCCCC1C(NC(=O)Nc1ccc2[nH]nc(-c3ccc(S(N)(=O)=O)cc3)c2c1)c1ccccc1 (as salt: fumaric acid salt) [Ex 12, 4-[5-({[(1-Methylpiperid-2-yl)(phenyl)methyl]carbamoyl}amino)-1H-indazol-3-yl]benzenesulfonamide((S,2S),(R,2R))] — higher, 220 °C
- CN1CCCCC1C(NC(=O)Nc1ccc2[nH]nc(-c3ccncc3)c2c1)c1ccccc1 (as salt: fumaric acid salt) [Ex 13, 1-[(1-Methylpiperid-2-yl)(phenyl)methyl]-3-(3-pyrid-4-yl-1H-indazol-5-yl)urea((S,2S),(R,2R))] — higher, 205 °C
- CN1CCCCC1C(NC(=O)Nc1ccc2[nH]nc(-c3cccnc3)c2c1)c1ccccc1 (as salt: fumaric acid salt) [Ex 14, 1-[(1-Methylpiperid-2-yl)(phenyl)methyl]-3-(3-pyrid-3-yl-1H-indazol-5-yl)urea((S,2S),(R,2R))] — higher, 210 °C
- CN1CCCCC1C(NC(=O)Nc1ccc2[nH]nc(-c3nc4ccccc4[nH]3)c2c1)c1ccccc1 (as salt: fumaric acid salt) [Ex 17, 1-[3-(1H-Benzimidazol-2-yl)-1H-indazol-5-yl]-3-[(1-methylpiperid-2-yl)(phenyl)methyl]urea((S,2S),(R,2R))] — higher, 250 °C
- Cc1n[nH]c2ccc(NC(=O)NC(c3ccccc3)C3CCCCN3C)cc12 (as salt: fumaric acid salt) [Ex 18, 3-Methyl-5-({[(1-methylpiperid-2-yl)(phenyl)methyl]carbamoyl}amino)-1H-indazole ((S,2S),(R,2R))] — higher, 200 to 201 °C

With `CN1CCCCC1C(NC(=O)Nc1ccc2[nH]nc(-c3ccccn3)c2c1)c1ccccc1` (as salt: fumaric acid salt) [Ex 15, 1-[(1-Methylpiperid-2-yl)(phenyl)methyl]-3-(3-pyrid-2-yl-1H-indazol-5-yl)urea((S,2S),(R,2R))] the melting point was over 250 °C.
